Test results published in the NIST ThermoML archive (doi:10.1016/j.jct.2016.04.020).

Assay: mn = molality of the nth substance listed, in mol/kg
Settings: 101.3 kPa, Liquid, Vibrating tube method

O=C([O-])CC(O)(CC(=O)[O-])C(=O)[O-].[NH4+].[NH4+].[NH4+] [ammonium 2-hydroxypropane-1,2,3-tricarboxylate] + O
mass density [kg/m3]
Settings	m1 = 0.0125	m1 = 0.025	m1 = 0.04999	m1 = 0.09998	m1 = 0.1499	m1 = 0.2
283.15 K	1001.9	1003.43	1006.27	1011.68	1017.03	1022.12
287.15 K	1001.25	1002.76	1005.56	1010.91	1016.2	1021.24
293.15 K	1000.32	1001.83	1004.59	1009.9	1015.14	1020.13
298.15 K	999.12	1000.6	1003.33	1008.6	1013.82	1018.77
303.15 K	997.71	999.18	1001.88	1007.13	1012.32	1017.26
308.15 K	996.07	997.53	1000.22	1005.44	1010.62	1015.55
313.15 K	994.23	995.69	998.32	1003.56	1008.75	1013.67
318.15 K	992.21	993.66	996.29	1001.54	1006.7	1011.63
323.15 K	990.03	991.47	994.08	999.34	1004.49	1009.46
328.15 K	987.68	989.12	991.7	996.99	1002.14	1007.11
333.15 K	985.17	986.62	989.15	994.46	999.65	1004.59

O=C([O-])CC(O)(CC(=O)[O-])C(=O)[O-].[Li+].[Li+].[Li+] [trilithium citrate] + O
Settings	mass density [kg/m3]
278.15 K, m1 = 0.0128	1002
278.15 K, m1 = 0.0256	1003.88
278.15 K, m1 = 0.06	1008.52
278.15 K, m1 = 0.1021	1013.86
278.15 K, m1 = 0.1956	1026.51
278.15 K, m1 = 0.293	1038.92
278.15 K, m1 = 0.3876	1050.53
278.15 K, m1 = 0.4799	1061.45
278.15 K, m1 = 0.6695	1083.25
278.15 K, m1 = 0.7552	1092.43
278.15 K, m1 = 0.8394	1101.64
278.15 K, m1 = 0.9407	1112.23
278.15 K, m1 = 1.33	1149.11
278.15 K, m1 = 1.74	1185.46
283.15 K, m1 = 0.0128	1001.66
283.15 K, m1 = 0.0256	1003.48
283.15 K, m1 = 0.06	1008.09
283.15 K, m1 = 0.1021	1013.43
283.15 K, m1 = 0.1956	1025.89
283.15 K, m1 = 0.293	1038.19
283.15 K, m1 = 0.3876	1049.67
283.15 K, m1 = 0.4799	1060.48
283.15 K, m1 = 0.6695	1082.11
283.15 K, m1 = 0.7552	1091.22
283.15 K, m1 = 0.8394	1100.37
283.15 K, m1 = 0.9407	1110.89
283.15 K, m1 = 1.33	1147.56
283.15 K, m1 = 1.74	1183.73
288.15 K, m1 = 0.0128	1001.03
288.15 K, m1 = 0.0256	1002.83
288.15 K, m1 = 0.06	1007.41
288.15 K, m1 = 0.1021	1012.68
288.15 K, m1 = 0.1956	1025.03
288.15 K, m1 = 0.293	1037.23
288.15 K, m1 = 0.3876	1048.63
288.15 K, m1 = 0.4799	1059.37
288.15 K, m1 = 0.6695	1080.85
288.15 K, m1 = 0.7552	1089.92
288.15 K, m1 = 0.8394	1099.01
288.15 K, m1 = 0.9407	1109.48
288.15 K, m1 = 1.33	1145.98
288.15 K, m1 = 1.74	1182.04
293.15 K, m1 = 0.0128	1000.13
293.15 K, m1 = 0.0256	1001.93
293.15 K, m1 = 0.06	1006.4
293.15 K, m1 = 0.1021	1011.71
293.15 K, m1 = 0.1956	1023.97
293.15 K, m1 = 0.293	1036.06
293.15 K, m1 = 0.3876	1047.42
293.15 K, m1 = 0.4799	1058.1
293.15 K, m1 = 0.6695	1079.46
293.15 K, m1 = 0.7552	1088.49
293.15 K, m1 = 0.8394	1097.55
293.15 K, m1 = 0.9407	1107.97
293.15 K, m1 = 1.33	1144.34
293.15 K, m1 = 1.74	1180.29
298.15 K, m1 = 0.0128	998.94
298.15 K, m1 = 0.0256	1000.72
298.15 K, m1 = 0.06	1005.21
298.15 K, m1 = 0.1021	1010.53
298.15 K, m1 = 0.1956	1022.63
298.15 K, m1 = 0.293	1034.68
298.15 K, m1 = 0.3876	1045.95
298.15 K, m1 = 0.4799	1056.57
298.15 K, m1 = 0.6695	1077.86
298.15 K, m1 = 0.7552	1086.85
298.15 K, m1 = 0.8394	1095.87
298.15 K, m1 = 0.9407	1106.24
298.15 K, m1 = 1.33	1142.51
298.15 K, m1 = 1.74	1178.37
303.15 K, m1 = 0.0128	997.54
303.15 K, m1 = 0.0256	999.32
303.15 K, m1 = 0.06	1003.8
303.15 K, m1 = 0.1021	1008.95
303.15 K, m1 = 0.1956	1021.12
303.15 K, m1 = 0.293	1033.1
303.15 K, m1 = 0.3876	1044.36
303.15 K, m1 = 0.4799	1054.93
303.15 K, m1 = 0.6695	1076.13
303.15 K, m1 = 0.7552	1085.11
303.15 K, m1 = 0.8394	1094.1
303.15 K, m1 = 0.9407	1104.46
303.15 K, m1 = 1.33	1140.64
303.15 K, m1 = 1.74	1176.43
308.15 K, m1 = 0.0128	995.93
308.15 K, m1 = 0.0256	997.69
308.15 K, m1 = 0.06	1002.15
308.15 K, m1 = 0.1021	1007.28
308.15 K, m1 = 0.1956	1019.42
308.15 K, m1 = 0.293	1031.35
308.15 K, m1 = 0.3876	1042.52
308.15 K, m1 = 0.4799	1053.1
308.15 K, m1 = 0.6695	1074.26
308.15 K, m1 = 0.7552	1083.2
308.15 K, m1 = 0.8394	1092.17
308.15 K, m1 = 0.9407	1102.51
308.15 K, m1 = 1.33	1138.61
308.15 K, m1 = 1.74	1174.35
313.15 K, m1 = 0.0128	994.08
313.15 K, m1 = 0.0256	995.83
313.15 K, m1 = 0.06	1000.28
313.15 K, m1 = 0.1021	1005.41
313.15 K, m1 = 0.1956	1017.49
313.15 K, m1 = 0.293	1029.43
313.15 K, m1 = 0.3876	1040.59
313.15 K, m1 = 0.4799	1051.12
313.15 K, m1 = 0.6695	1072.2
313.15 K, m1 = 0.7552	1081.14
313.15 K, m1 = 0.8394	1090.09
313.15 K, m1 = 0.9407	1100.41
313.15 K, m1 = 1.33	1136.47
313.15 K, m1 = 1.74	1172.18
318.15 K, m1 = 0.0128	992.05
318.15 K, m1 = 0.0256	993.81
318.15 K, m1 = 0.06	998.26
318.15 K, m1 = 0.1021	1003.38
318.15 K, m1 = 0.1956	1015.42
318.15 K, m1 = 0.293	1027.35
318.15 K, m1 = 0.3876	1038.47
318.15 K, m1 = 0.4799	1048.98
318.15 K, m1 = 0.6695	1070.04
318.15 K, m1 = 0.7552	1078.96
318.15 K, m1 = 0.8394	1087.9
318.15 K, m1 = 0.9407	1098.21
318.15 K, m1 = 1.33	1134.23
318.15 K, m1 = 1.74	1169.9
323.15 K, m1 = 0.0128	989.86
323.15 K, m1 = 0.0256	991.58
323.15 K, m1 = 0.06	996.08
323.15 K, m1 = 0.1021	1001.19
323.15 K, m1 = 0.1956	1013.22
323.15 K, m1 = 0.293	1025.12
323.15 K, m1 = 0.3876	1036.24
323.15 K, m1 = 0.4799	1046.74
323.15 K, m1 = 0.6695	1067.78
323.15 K, m1 = 0.7552	1076.68
323.15 K, m1 = 0.8394	1085.62
323.15 K, m1 = 0.9407	1095.92
323.15 K, m1 = 1.33	1131.93
323.15 K, m1 = 1.74	1167.57
328.15 K, m1 = 0.0128	987.52
328.15 K, m1 = 0.0256	989.24
328.15 K, m1 = 0.06	993.72
328.15 K, m1 = 0.1021	998.82
328.15 K, m1 = 0.1956	1010.84
328.15 K, m1 = 0.293	1022.76
328.15 K, m1 = 0.3876	1033.86
328.15 K, m1 = 0.4799	1044.36
328.15 K, m1 = 0.6695	1065.38
328.15 K, m1 = 0.7552	1074.27
328.15 K, m1 = 0.8394	1083.21
328.15 K, m1 = 0.9407	1093.5
328.15 K, m1 = 1.33	1129.51
328.15 K, m1 = 1.74	1165.14
333.15 K, m1 = 0.0128	985.04
333.15 K, m1 = 0.0256	986.7
333.15 K, m1 = 0.06	991.24
333.15 K, m1 = 0.1021	996.31
333.15 K, m1 = 0.1956	1008.42
333.15 K, m1 = 0.293	1020.27
333.15 K, m1 = 0.3876	1031.35
333.15 K, m1 = 0.4799	1041.87
333.15 K, m1 = 0.6695	1062.87
333.15 K, m1 = 0.7552	1071.77
333.15 K, m1 = 0.8394	1080.69
333.15 K, m1 = 0.9407	1090.99
333.15 K, m1 = 1.33	1127.01
333.15 K, m1 = 1.74	1162.66
338.15 K, m1 = 0.0128	982.43
338.15 K, m1 = 0.0256	984.02
338.15 K, m1 = 0.06	988.59
338.15 K, m1 = 0.1021	993.66
338.15 K, m1 = 0.1956	1005.8
338.15 K, m1 = 0.293	1017.67
338.15 K, m1 = 0.3876	1028.73
338.15 K, m1 = 0.4799	1039.22
338.15 K, m1 = 0.6695	1060.25
338.15 K, m1 = 0.7552	1069.15
338.15 K, m1 = 0.8394	1078.19
338.15 K, m1 = 0.9407	1088.43
338.15 K, m1 = 1.33	1124.43
338.15 K, m1 = 1.74	1160.09
343.15 K, m1 = 0.0128	979.51
343.15 K, m1 = 0.0256	981.2
343.15 K, m1 = 0.06	985.85
343.15 K, m1 = 0.1021	990.99
343.15 K, m1 = 0.1956	1002.94
343.15 K, m1 = 0.293	1014.95
343.15 K, m1 = 0.3876	1026.06
343.15 K, m1 = 0.4799	1036.55
343.15 K, m1 = 0.6695	1057.62
343.15 K, m1 = 0.7552	1066.41
343.15 K, m1 = 0.8394	1075.46
343.15 K, m1 = 0.9407	1085.78
343.15 K, m1 = 1.33	1121.83
343.15 K, m1 = 1.74	1157.54
